Measurements: patent publication US9522978B2, “PI polyamide” (NIHON UNIVERSITY, priority 2013, dated 2016)

Experiments:
[1] = test system: Oct1 oligo DNA (Oct1 gene binding sequence, SEQ ID NO:1); experiment: DNA Binding Assay (gel electrophoretic pattern); conditions: 5 μl of 0.2 mM PI polyamide mixed with 15 μl hairpin double strand DNA, 37° C. 1 hour
Procedure: For each of the PI polyamides (1) to (3) (three types) generated in 5, a DNA Binding Assay of the following steps 1) and 2) was performed to confirm binding to the Oct1 gene binding sequence (SEQ ID NO:1). The PI polyamide (control) was also examined in terms of the presence/absence of binding to the Oct1 gene binding sequence (SEQ ID NO:1).
1) Molecules (50-base) were created that have Oct1 oligo DNA including the same base sequence as the Oct1 gene binding sequence (SEQ ID NO:1) labelled with FITC, and the oligo at a final concentration of 1 μM was heated to 100° C. in an annealing buffer (20 mM Tris-HCl, 2 mM EDTA, 200 mM NaCl). The oligo was cooled for 2 hours in stages to 30° C. As a result, the Oct1 oligo DNA underwent self-annealing and forms a double strand in a hairpin shape.
2) 15 μl of solution containing the hairpin-shaped double strand DNA of 1) was mixed with 5 μl of each of the 0.2 mM PI polyamides (1) to (3) and PI polyamide (control) and incubated at 37° C. for 1 hour to acquire a mixed solution.
3) The mixed solution of 2) was electrophoresed in 5-20% acrylamide gel (TBE buffer) and an electrophoretic pattern was monitored with LAS 4000 (manufactured by GE Healthcare Japan) to determine the presence/absence of binding from a difference in the electrophoretic pattern.

ACSL3 gene = experiment: Examination of expression of ACSL3 gene by RT-PCR in LNCaP cells; assay type: cell-based, Human
Procedure: The expression of ACSL3 Gene was examined by RT-PCR in a cell into which each of the PI polyamides (1) to (3) was introduced. For comparison, the same examination was conducted for a cell into which the PI polyamide (control) was introduced.
The LNCaP cells were cultured for 3 days in the Phenol-Red-free medium of 3. (2) to which each of the PI polyamides was added at 5 μM. Subsequently, DHT (100 nM) of 4. was added into the medium to apply androgen stimulation.
After RNA is extracted from the cells by using Isogen (Nippon Gene) in accordance with a manual, cDNA was prepared by using PrimeScript (registered trademark) Reverse Transcriptase (manufactured by TaKaRa).
Each of the cDNAs prepared in 1) was used as a template DNA to examine with primers listed in Table 4 the presence/absence of expression of a fusion gene or an ERG gene in the prostate cancer cell into which each of the PI polyamides was introduced. In this RT-qPCR, Power SYBR (registered trademark) Green PCR Master Mix (manufactured by Applied Biosystems) was used.

ACSL3 protein = experiment: Western blotting of ACSL3 protein from excised tumors; assay type: in vivo, Human; conditions: nude mice, tail vein 6 mg/kg once per week for 4 weeks, FIG. 12
Procedure: (§1) To 7-week-old male nude mice (n=10), 3×10^6 prostate cancer cells (LNCaP) were subcutaneously injected at the right flank. A tumor size was monitored by caliper measurement every 3 days. When the tumor size reaches […], the PI polyamide (1) or the PI polyamide (control) dissolved in dH2O was injected from a tail vein at 6 mg/kg bodyweight (PI polyamide (1): n=4, PI polyamide (control): n=6).
(§2) The injection was performed once per week for 4 weeks and the tumor size was measured every week. After one week from the last injection, the nude mice were dissected to excise the tumors.
FIG. 12 depicts a result of western blotting with an ACSL3 antibody of protein extracted using a lysis buffer (NP40 buffer) from the excised tumors (two individuals #1 and #2) (upper portion of FIG. 12; lower portion indicates expression of β-actin protein).

LNCaP cells [2] = experiment: Evaluation of proliferation ability by MTS assay; assay type: cell-based, Human
Procedure: After treatment with the PI polyamide (1) or the PI polyamide (control) for comparison, the proliferation ability of these cells were examined by MTS assay.
In particular, the LNCaP cells were seeded on a 96-well plate to 5×10^3 cells in total and cultured for 3 days in the Phenol-Red-free medium of 3. (2) to which each of the PI polyamides was added at 1 μM or 5 μM. Subsequently, DHT (100 nM) of 4. was added into the medium to apply androgen stimulation. After the stimulation, each of the cells were cultured for 24, 48, or 96 hours.
After the specified stimulation time, 10 μl of an MTS reagent (Cell Titer 96 AQueous One Solution Cell Proliferation Assay, Promega, Madison Wis.) was added to the cells before incubation for 1 hour. Subsequently, the absorbance (490 nm) of the cells was measured and the numbers of the cultured cells were examined to evaluate the cell proliferation ability.

LNCaP cells [3] = experiment: Evaluation of cell migration ability (cell migration assay); assay type: cell-based, Human; conditions: 5 μM, 3 days, compared to PI polyamide (control), FIGS. 9 and 10
Procedure: After culturing cells into which the PI polyamide (1) was introduced and cells into which the PI polyamide (control) was introduced for comparison, the migration ability of the cells was examined by a cell migration assay using a cell culture insert and a 8.0 μm pore size PET filter (manufactured by Becton Dickinson).
In particular, after fibronectin (manufactured by Sigma) diluted with PBS to 10 μg/ml was allowed to act on a culture dish for 30 minutes to form a lower filter, 700 μl of the Phenol-Red-containing RPMI 1640 medium of 3. (1) was added to a lower chamber.
The LNCaP cells were cultured for 3 days in the Phenol-Red-containing medium of 3. (1) to which each of the PI polyamides was added at 5 μM and divided into units of 5×10^4 cells, and each unit of cells was suspended in 300 μl of the Phenol-Red-containing medium of 3. (1) and added to the upper chamber. After the cells were cultured at 37° C. under the condition of 5% CO2, the filter was peeled off.
The cells on the lower filter were fixed by methanol for 30 minutes and then incubated for 30 seconds in Gimsa's stain solution (manufactured by Muto Pure Chemicals). Subsequently, the cells were observed by a microscope of 200 magnifications to count the number of cells, thereby evaluating the cell migration ability.

[4] = test system: ACSL3 transcriptional regulatory region (AR response region); experiment: Luciferase assay of AR activity in ACSL3 transcriptional regulatory region; assay type: cell-based, Human; conditions: LNCaP, 1 μM or 5 μM, DHT 100 nM, compared to same amount of PI polyamide (control), FIG. 6
Procedure: (§3) About 1 kb of AR binding site (ARBS) located 63 kb upstream of the ACSL3 transcription start point was extracted (SEQ ID NO:10) and insert into a luciferase vector (pGL3 promoter vector: Promega, Madison, Wis.). This vector was used for transfection of a prostate cancer cell (LNCaP) cultured for about 60 hours in the Phenol-Red-free medium of 3. (2) by using FuGENE (registered trademark) HD (Roche Applied Science) as a transection reagent in accordance with the protocol thereof.
(§4) After about 12 hours, androgen stimulation using 100 nM of DHT and introduction of the PI polyamide (1) or PI polyamide (control) (1 μM or 5 μM) were performed and followed by a luciferase assay. This test was conducted by using prostate cancer cells (LNCaP) incorporated with a PSA promoter region (SEQ ID NO:22) known to have AR response activity as a positive control for the luciferase vector.

PSA promoter region = experiment: Luciferase assay of AR activity in PSA promoter region (positive control); assay type: cell-based, Human; conditions: LNCaP, compared to same amount of PI polyamide (control), FIG. 7
Procedure: as §3, §4

[5] = test system: prostate cancer cells (LNCaP) tumor; experiment: Effect of the PI polyamide on a tumor in nude mice injected with LNCaP; assay type: in vivo; conditions: tail vein 6 mg/kg once per week for 4 weeks, compared to PI polyamide (control), FIG. 11
Procedure: The effect of the PI polyamide on a tumor was confirmed.
as §1, §2

[6] = 5 μM, 3 days, androgen stimulation DHT 100 nM, FIG. 4
[7] = concentration and time not stated

Compound | binding to the Oct1 oligo DNA (presence/absence) [1] | expression of the ACSL3 gene (ACSL3 gene; [6]) | expression of the ACSL3 protein in excised tumors (ACSL3 protein) | cell proliferation (LNCaP cells [2]; [7]) | cell migration ability (invasive potential) (LNCaP cells [3]) | expression of the ACSL3 gene (ACSL3 gene; 5 μM (1 μM or 5 μM tested), androgen stimulation, FIG. 5) | AR activity in the ACSL3 transcriptional regulatory region (AR response region) [4] | AR activity in the PSA promoter region (PSA promoter region) | cell proliferation (LNCaP cells [2]; 5 μM, after 48 hours of incubation, compared to PI polyamide (control) 5 μM, FIG. 8) | cell proliferation (LNCaP cells [2]; 5 μM, after 96 hours of incubation, FIG. 8) | formation of tumor [5]
AcPyPyPyImβImγPyβPyImβImβDp [PI polyamide (control), reference compound] | no binding occurs | not inhibited | expressed |  |  |  |  |  |  |  | 
CC(=O)Nc1cn(C)c(C(=O)Nc2cc(C(=O)NCCC(=O)Nc3cc(C(=O)Nc4cc(C(=O)Nc5cc(C(=O)NCCCC(=O)Nc6cc(C(=O)Nc7cc(C(=O)Nc8cc(C(=O)NCCC(=O)Nc9cn(C)c(C(=O)Nc%10cc(C(=O)NCCC(=O)NCCCN(C)C)n(C)c%10)n9)n(C)c8)n(C)c7)n(C)c6)n(C)c5)n(C)c4)n(C)c3)n(C)c2)n1 [PI polyamide (2), AcImPyβPyPyPyγPyPyPyβImPyβDp] |  | inhibited |  | suppressed in the same way | suppressed in the same way |  |  |  |  |  | 
CC(=O)Nc1cc(C(=O)Nc2cc(C(=O)NCCC(=O)Nc3cn(C)c(C(=O)Nc4cc(C(=O)Nc5cc(C(=O)NCCCC(=O)Nc6cc(C(=O)Nc7cn(C)c(C(=O)Nc8cc(C(=O)NCCC(=O)Nc9cn(C)c(C(=O)Nc%10cc(C(=O)NCCC(=O)NCCCN(C)C)n(C)c%10)n9)n(C)c8)n7)n(C)c6)n(C)c5)n(C)c4)n3)n(C)c2)n(C)c1 [PI polyamide (1), AcPyPyβImPyPyγPyImPyβImPyβDp] |  | inhibited | remarkably inhibited |  | significantly inhibited | particularly inhibited | significantly reduces | no significant difference | significantly inhibited | further significantly inhibited | remarkably inhibited
CC(=O)Nc1cc(C(=O)Nc2cc(C(=O)NCCC(=O)Nc3cc(C(=O)Nc4cc(C(=O)Nc5cc(C(=O)NCCCC(=O)Nc6cn(C)c(C(=O)Nc7cc(C(=O)Nc8cc(C(=O)NCCC(=O)Nc9cc(C(=O)Nc%10cc(C(=O)NCCC(=O)NCCCN(C)C)n(C)c%10)n(C)c9)n(C)c8)n(C)c7)n6)n(C)c5)n(C)c4)n(C)c3)n(C)c2)n(C)c1 [PI polyamide (3), AcPyPyβPyPyPyγImPyPyβPyPyβDp] |  | inhibited |  | suppressed in the same way | suppressed in the same way |  |  |  |  |  | 
